What was measured:
[1] = test system: Olig (oligonucleotide fragment of the UCP1 gene promoter; Oligo) (DNA, G4) CGAGGGTGGGTAGGAGGGGACGCGGGGACT; test: UV-vis absorption; settings: 100 mM KCl; 10 mM Tris-HCl pH 7.4, 25°C; 6 μM DNA, 24 μM berberine; ~45% hypochromicity, 340 to 348 nm
[2] = test system: Olig (oligonucleotide fragment of the UCP1 gene promoter; Oligo) (DNA, G4) CGAGGGTGGGTAGGAGGGGACGCGGGGACT; test: native gel electrophoresis; settings: 100 mM KCl; 10 mM Tris-HCl pH 7.4, 4°C overnight; 6 μM DNA, 24 μM berberine; Uni-G4 to Tetra-G4
[3] = test system: Olig (oligonucleotide fragment of the UCP1 gene promoter; Oligo) (DNA, G4) CGAGGGTGGGTAGGAGGGGACGCGGGGACT; test: fluorescence enhancement; settings: 100 mM KCl; 10 mM Tris-HCl pH 7.4, 25°C; 6 μM DNA, 24 μM berberine; excitation 280 nm

binding [1]: yes
binding [2]: yes
binding [3]: yes
SMILES: COc1ccc2cc3[n+](cc2c1OC)CCc1cc2c(cc1-3)OCO2
